Source: US11780830B2, “Triazolone derivatives or salts thereof and pharmaceutical compositions comprising the same” (YUHAN CORPORATION, priority 2018, dated 2023)
Counter-ions that a name gives are not always drawn.

Key:
Assay type in all cases: biochemical
recombinant human VAP-1 = target: T1, recombinant human VAP-1 (Homo sapiens, UniProt Q16853); experiment: Activity on recombinant human VAP-1, HRP-coupled Amplex Red hydrogen peroxide assay; conditions: substrate 1 mM benzylamine; compound incubated with enzyme at 37° C. for 30 minutes; pH 7.4; read-out: Inhibitory Activity (IC50, nM) human VAP-1
T1 construct: purchased R&D systems
T1 sequence (Q16853 1-763): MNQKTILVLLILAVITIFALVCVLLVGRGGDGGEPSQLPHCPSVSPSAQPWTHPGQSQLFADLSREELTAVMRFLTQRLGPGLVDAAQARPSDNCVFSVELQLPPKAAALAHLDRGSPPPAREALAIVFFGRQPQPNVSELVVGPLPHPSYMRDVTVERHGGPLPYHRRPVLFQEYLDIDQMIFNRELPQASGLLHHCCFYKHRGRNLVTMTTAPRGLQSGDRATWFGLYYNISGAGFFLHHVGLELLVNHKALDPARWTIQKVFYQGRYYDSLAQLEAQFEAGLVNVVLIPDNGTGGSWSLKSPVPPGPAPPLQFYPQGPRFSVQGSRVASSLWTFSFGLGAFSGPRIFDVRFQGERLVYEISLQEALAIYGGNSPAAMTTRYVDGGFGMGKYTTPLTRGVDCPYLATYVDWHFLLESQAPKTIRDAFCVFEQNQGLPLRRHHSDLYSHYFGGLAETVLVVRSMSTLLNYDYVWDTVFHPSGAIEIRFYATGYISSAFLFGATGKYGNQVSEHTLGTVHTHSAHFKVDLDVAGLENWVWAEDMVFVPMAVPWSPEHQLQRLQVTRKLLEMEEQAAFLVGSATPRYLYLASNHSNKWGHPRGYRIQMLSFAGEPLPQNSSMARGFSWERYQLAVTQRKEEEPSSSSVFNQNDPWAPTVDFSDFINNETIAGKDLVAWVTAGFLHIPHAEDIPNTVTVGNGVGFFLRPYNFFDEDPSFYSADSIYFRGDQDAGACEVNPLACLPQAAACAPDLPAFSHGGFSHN
Description: (§1) The compounds according to the present technology were evaluated in terms of activity on recombinant human VAP-1 (R&D systems) by measuring the level of hydrogen peroxide in horseradish peroxidase (HRP)-coupled reaction using Amplex Red Hydrogen Peroxide Assay Kit (Molecular Probes, Invitrogen, USA). The experiment was carried out at room temperature using benzylamine as a substrate. In the HRP-coupled reaction, hydrogen peroxide oxidation of 10-acetyl-3,7-dihydroxyphenoxazine (Amplex Red reagent) produces resorufin, which is a highly fluorescent compound. Briefly, the test compound was dissolved in dimethyl sulfoxide (DMSO) at a concentration of 20 mM. The dose-response assessment was made by 1:3 serial dilution in DMSO, thereby creating an 8 point curve. The concentration of the upper part was controlled according to the efficacy of the compounds, followed by dilution with a reaction buffer solution to obtain a final DMSO concentration less than 1%. To each well of a 96 black well plate, human VAP-1 purified in 50 mM sodium phosphate buffer solution (pH7.4) was added. The test compounds dissolved in DMSO were incubated with the human VAP-1 enzymes at 37° C. for 30 minutes. After 30-minute incubation, each well is added with a reaction mixture containing 200 uM Amplex Red reagent prepared from 50 mM sodium phosphate buffer solution (pH 7.4), 1 mM benzylamine, and 1 U/mL HRP. Fluorescence intensity was measured at several time points during 1-2 hours using a microplate reader (Flexstation3, Molecular Devices) under the wavelength condition exciting at 544 nm and reading the emission at 590 nm. The inhibitory effect of the compounds was measured as a decrease (%) in the signal rate as compared to the control group without any inhibitor (only diluted DMSO). Data was fixed to a logistic model with four variables and IC50 value was calculated using GraphPad Prism program.

[1] = target: T2, recombinant human MAO-A (monoamine oxidase-A) (Homo sapiens, UniProt P21397); experiment: Activity on recombinant human MAO-A, method similar to the VAP-1 assay; conditions: substrate 0.5 mM tyramine; read-out: Inhibitory Activity (IC50, nM) MAO-A
T2 construct: purchased Sigma-Aldrich
T2 sequence (P21397 1-527): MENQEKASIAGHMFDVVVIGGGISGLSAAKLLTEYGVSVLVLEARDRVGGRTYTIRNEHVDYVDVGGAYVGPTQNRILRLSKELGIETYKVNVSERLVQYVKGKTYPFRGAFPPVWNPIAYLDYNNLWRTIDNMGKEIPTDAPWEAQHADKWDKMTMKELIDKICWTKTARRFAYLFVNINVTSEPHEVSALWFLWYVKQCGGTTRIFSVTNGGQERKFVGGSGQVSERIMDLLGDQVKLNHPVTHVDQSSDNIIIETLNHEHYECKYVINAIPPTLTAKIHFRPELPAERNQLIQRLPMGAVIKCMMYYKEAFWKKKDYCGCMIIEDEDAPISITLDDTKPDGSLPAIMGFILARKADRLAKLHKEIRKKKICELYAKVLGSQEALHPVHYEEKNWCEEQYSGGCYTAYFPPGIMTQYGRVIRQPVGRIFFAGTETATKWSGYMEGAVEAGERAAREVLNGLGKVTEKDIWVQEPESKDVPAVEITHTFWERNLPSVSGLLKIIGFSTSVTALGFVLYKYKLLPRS
Description: as §1
(§2) In addition, the compounds according to the present technology were evaluated in terms of activity on a recombinant human MAO-A (monoamine oxidase-A, Sigma-Aldrich) and a recombinant human MAO-B (monoamine oxidase-B, Sigma-Aldrich) by using as substrates, 0.5 mM tyramine and 1 mM benzylamine, respectively, with a method similar to the activity evaluation method for recombinant human VAP-1. The compounds according to the present technology were also evaluated in terms of activity on a recombinant human DAO (diamine oxidase, R&D systems) by using as a substrate 1 mM putrescine with a method similar to the activity evaluation method for recombinant human VAP-1.

[2] = target: T3, recombinant human DAO (diamine oxidase) (Homo sapiens, UniProt P19801); experiment: Activity on recombinant human DAO, method similar to the VAP-1 assay; conditions: substrate 1 mM putrescine; read-out: Inhibitory Activity (IC50, nM) DAO
T3 construct: purchased R&D systems
T3 sequence (P19801 20-751): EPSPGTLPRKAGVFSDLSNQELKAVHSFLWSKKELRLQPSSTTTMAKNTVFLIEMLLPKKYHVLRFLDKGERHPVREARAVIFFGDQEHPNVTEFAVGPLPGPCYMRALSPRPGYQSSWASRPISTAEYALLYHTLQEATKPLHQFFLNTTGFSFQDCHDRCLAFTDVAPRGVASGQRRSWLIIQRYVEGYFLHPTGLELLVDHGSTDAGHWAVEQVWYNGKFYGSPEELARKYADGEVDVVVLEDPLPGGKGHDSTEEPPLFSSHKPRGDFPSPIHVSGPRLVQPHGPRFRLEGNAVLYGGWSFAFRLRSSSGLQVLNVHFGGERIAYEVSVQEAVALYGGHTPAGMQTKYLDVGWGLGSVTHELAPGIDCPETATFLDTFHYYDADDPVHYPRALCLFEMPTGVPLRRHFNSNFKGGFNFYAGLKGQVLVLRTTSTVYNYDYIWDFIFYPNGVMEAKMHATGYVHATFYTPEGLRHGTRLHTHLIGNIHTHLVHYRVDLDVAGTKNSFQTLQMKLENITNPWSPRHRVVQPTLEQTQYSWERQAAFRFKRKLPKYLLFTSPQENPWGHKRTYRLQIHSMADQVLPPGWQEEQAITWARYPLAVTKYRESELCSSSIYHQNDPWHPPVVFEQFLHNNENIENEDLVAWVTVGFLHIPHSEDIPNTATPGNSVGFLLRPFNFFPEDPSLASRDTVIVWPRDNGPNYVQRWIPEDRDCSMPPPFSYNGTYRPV
Description: as §1, §2

| IC50 (recombinant human VAP-1) | IC50 [1] | IC50 [2] | Compound |
| --- | --- | --- | --- |
| 1.4 nM | – | – | NC/C(=C/F)Cn1ncn(Cc2ccc(-c3ccc(C(=O)N4CCOCC4)cc3)s2)c1=O [Example 26, 2-[(2Z)-2-(aminomethyl)-3-fluoroprop-2-en-1-yl]-4-(5-[4-(morpholin-4-ylcarbonyl)phenyl]thiophen-2-ylmethyl)-2,4-dihydro-3H-1,2,4-triazol-3-one hydrochloride] |
| 0.97 nM | – | – | NC/C(=C/F)Cn1ncn(Cc2ccc(-c3ccc(-c4nnc[nH]4)cc3)s2)c1=O [Example 30, 2-[(2Z)-2-(aminomethyl)-3-fluoroprop-2-en-1-yl]-4-(5-[4-(4H-1,2,4-triazol-3-yl)phenyl]thiophen-2-ylmethyl)-2,4-dihydro-3H-1,2,4-triazol-3-one] |
| 1.2 nM | – | – | NC/C(=C/F)Cn1ncn(Cc2ccc(-c3cccc(-c4nnc[nH]4)c3)s2)c1=O [Example 32, 2-[(2Z)-2-(aminomethyl)-3-fluoroprop-2-en-1-yl]-4-(5-[3-(4H-1,2,4-triazol-3-yl)phenyl]thiophen-2-ylmethyl)-2,4-dihydro-3H-1,2,4-triazol-3-one] |
| 1.3 nM | – | – | CC(=O)Nc1cc(-c2ccc(Cn3cnn(C/C(=C\F)CN)c3=O)s2)ccn1 [Example 41, N-4-[5-(1-[(2Z)-2-(aminomethyl)-3-fluoroprop-2-en-1-yl]-5-oxo-1,5-dihydro-4H-1,2,4-triazol-4-ylmethyl)thiophen-2-yl]pyridin-2-ylacetamide hydrochloride] |
| 1.9 nM | – | – | COc1ccc(-c2ccc(Cn3cnn(C/C(=C\F)CN)c3=O)s2)cn1 [Example 44, 2-[(2Z)-2-(aminomethyl)-3-fluoroprop-2-en-1-yl]-4-[5-(6-methoxypyridin-3-yl)thiophen-2-yl]methyl-2,4-dihydro-3H-1,2,4-triazol-3-one hydrochloride] |
| 1.6 nM | – | – | NC/C(=C/F)Cn1ncn(Cc2ccc(-c3ccc(C(F)(F)F)nc3)s2)c1=O [Example 48, 2-[(2Z)-2-(aminomethyl)-3-fluoroprop-2-en-1-yl]-4-(5-[6-(trifluoromethyl)pyridin-3-yl]thiophen-2-ylmethyl)-2,4-dihydro-3H-1,2,4-triazol-3-one hydrochloride] |
| 0.75 nM | – | – | NC/C(=C/F)Cn1ncn(Cc2ccc(-c3ccc(N4CCOCC4)nc3)s2)c1=O [Example 51, 2-[(2Z)-2-(aminomethyl)-3-fluoroprop-2-en-1-yl]-4-(5-[6-(morpholin-4-yl)pyridin-3-yl]thiophen-2-ylmethyl)-2,4-dihydro-3H-1,2,4-triazol-3-one hydrochloride] |
| 2.6 nM | > 100000 nM | 380 nM | COCCNc1ncc(-c2ccc(Cn3cnn(C/C(=C/F)CN)c3=O)s2)cn1 [Example 53, 2-[(2E)-2-(aminomethyl)-3-fluoroprop-2-en-1-yl]-4-[(5-2-[(2-methoxyethyl)amino]pyrimidin-5-ylthiophen-2-yl)methyl]-2,4-dihydro-3H-1,2,4-triazol-3-one hydrochloride] |
| 1.7 nM | > 10000 nM | 110 nM | N#Cc1ncc(-c2ccc(Cn3cnn(C/C(=C/F)CN)c3=O)s2)cn1 [Example 54, 5-[5-(1-[(2E)-2-(aminomethyl)-3-fluoroprop-2-en-1-yl]-5-oxo-1,5-dihydro-4H-1,2,4-triazol-4-ylmethyl)thiophen-2-yl]pyrimidine-2-carbonitrile hydrochloride] |
| 2.7 nM | – | – | Cc1cc(-c2ccc(Cn3cnn(C/C(=C\F)CN)c3=O)s2)cc2c1NC(=O)CC2 [Example 76, 6-[5-(1-[(2Z)-2-(aminomethyl)-3-fluoroprop-2-en-1-yl]-5-oxo-1,5-dihydro-4H-1,2,4-triazol-4-ylmethyl)thiophen-2-yl]-8-methyl-3,4-dihydroquinolin-2(1H)-one hydrochloride] |
| 1.9 nM | – | – | NC/C(=C/F)Cn1ncn(Cc2ccc(-c3ccc4c(c3)NC(=O)CO4)s2)c1=O [Example 89, 6-[5-(1-[(2Z)-2-(aminomethyl)-3-fluoroprop-2-en-1-yl]-5-oxo-1,5-dihydro-4H-1,2,4-triazol-4-ylmethyl)thiophen-2-yl]-2H-1,4-benzoxazin-3(4H)-one hydrochloride] |
| 1.2 nM | – | – | NC/C(=C/F)Cn1ncn(Cc2ccc(-c3ccc4c(c3)NC(=O)OC4)s2)c1=O [Example 99, 7-[5-(1-[(2Z)-2-(aminomethyl)-3-fluoroprop-2-en-1-yl]-5-oxo-1,5-dihydro-4H-1,2,4-triazol-4-ylmethyl)thiophen-2-yl]-1,4-dihydro-2H-3,1-benzoxazin-2-one hydrochloride] |
| 1 nM | > 100000 nM | 680 nM | NC/C(=C\F)Cn1ncn(Cc2ccc(/C=C/c3cnc4[nH]c(=O)oc4c3)s2)c1=O [Example 122, 6-[(E)-2-[5-[[1-[(E)-2-(aminomethyl)-3-fluoro-allyl]-5-oxo-1,2,4-triazol-4-yl]methyl]-2-thienyl]vinyl]-3H-oxazolo[4,5-b]pyridin-2-one hydrochloride] |
| 31 nM | – | – | NC/C(=C/F)Cn1ncn(CCc2cccs2)c1=O [Example 140, 2-[(2Z)-2-(aminomethyl)-3-fluoroprop-2-en-1-yl]-4-[2-(thiophen-2-yl)ethyl]-2,4-dihydro-3H-1,2,4-triazol-3-one] |
